Tested on: 953936-095-R-J2-PDC spheroids with HUVEC/MSC, viability
Assay: Anticancer human tumor 953936-095-R-J2-PDC patient-derived cervical squamous cell carcinoma cell line growth inhibition [PI3K]
Conditions: for IC50: curve of first compound; for viability, T/C: stronger effect = lower value
Source text: Combinatorial screen of targeted agents with the PI3K inhibitors inavolisib, alpelisib, duvelisib, and copanlisib in multi-cell type tumor spheroids
A high-throughput screen of multi-cell type tumor spheroids was designed to identify active combinations of targeted small molecules and PI3K pathway inhibitors. Complex spheroids include a stromal component modeled by human endothelial cells (HUVEC) and fibroblasts modeled by human mesenchymal stem cells (MSCs). The concentration ranges selected for each drug and investigational agent were based upon clinically achievable concentrations if the clinical Cmax of the agent was known.
Compounds. The drugs and investigational agents: inavolisib (NSC800729), alpelisib (NSC765974), duvelisib (NSC772469), copanlisib (NSC816437), ipatasertib (NSC767898), afuresertib (NSC778305), talazoparib (NSC767125), sapanisertib (NSC764658), selumetinib (NSC741078), tovorafenib (DAY101, NSC766906), vemurafenib (NSC761431), ravoxertinib (NSC781343), sotorasib (NSC818433), MRTX1133 (NSC 836407), abemaciclib (NSC 768073), palbociclib (NSC758247), venetoclax (NSC 766270), SY5609 (NSC837396), enzalutamide (NSC755605), and darolutamide (NSC825331), were obtained from the National Cancer Institute (NCI) Developmental Therapeutics Program Chemical Repository. The FDA-approved anticancer drug set is available from the NCI Developmental Therapeutics Program. […] The stock solutions were prepared in dimethyl sulfoxide (DMSO, Sigma-Aldrich, St. Louis, MO, cat. D2650) at 800-fold the tested concentration and stored at -70 degrees C prior to their use. All drugs and investigational agents were tested over a range starting from a high concentration at or near the clinical Cmax and decreasing in half-log increments. If the clinical Cmax for an agent had not been determined, the highest concentration tested was 10 microM.
Cell Culture. All cells were maintained in an incubator at 37 degrees C and 5% CO2 with 95% humidity. The PDC lines were cultured according to standard operating procedures established by the NCI PDMR (https://pdmr.cancer.gov/sops/default.htm). All PDCs were thawed and cultured in Matrigel-coated flasks prepared with a working solution of 1X Ham's F-12 nutrient mix, without supplementation (Invitrogen, Waltham, MA, cat. 11765054), 100 U/mL penicillin-streptomycin (Invitrogen, cat. 15140122), and 2.5% Matrigel (Corning Inc., Corning, NY, cat. 354248) for the first three passages. The 354836-022-R-J1-PDC, 475296-252-R-J1-PDC, and 997726-040-R-J2-PDC lines were cultured in 6A media, which includes advanced DMEM/F-12 (Thermo Fisher Scientific, cat. 12634028), 10 mM HEPES (Thermo Fisher Scientific, cat. 15630080), 1X GlutaMAX supplement (Thermo Fisher Scientific, cat. 35050061), 0.1 mg/mL primocin (InvivoGen, San Diego, CA, cat. ant-pm-2), 10% defined fetal bovine serum, heat inactivated (HyClone Laboratories Inc., Logan, UT, cat. SH30070.03HI), 50% L-WRN conditioned media (ATCC, cat. CRL-3276), 1.25 mM N-Acetyl-L-cysteine (Sigma-Aldrich, cat. A9165), 10 mM nicotinamide (Sigma-Aldrich, cat. N0636), 1X B-27 supplement (Thermo Fisher Scientific, cat. 17504044), 1X N-2 supplement (Thermo Fisher Scientific, cat. 17502048), and 10 microM Y-27632 dihydrochloride (Tocris Bioscience, Bristol, United Kingdom, cat. 1254). The 624824-186-R-J2-PDC line was cultured in 6C/Colon 1B media, which includes all 6A media components plus 50 ng/mL human EGF recombinant protein (Thermo Fisher Scientific, cat. PHG0311). […]

[1] = second compound 0.0316 µM, first compound 0.0316 µM
[2] = second compound 0.0316 µM, first compound 0.1 µM
[3] = second compound 0.0316 µM, first compound 0.316 µM
[4] = second compound 0.0316 µM, first compound 1 µM
[5] = second compound 0.0316 µM, first compound 3.16 µM
[6] = second compound 0.0316 µM, first compound 10 µM
[7] = second compound 0.1 µM, first compound 0.0316 µM
[8] = second compound 0.1 µM, first compound 0.1 µM
[9] = second compound 0.1 µM, first compound 0.316 µM
[10] = second compound 0.1 µM, first compound 1 µM
[11] = second compound 0.1 µM, first compound 3.16 µM
[12] = second compound 0.1 µM, first compound 10 µM
[13] = second compound 0.316 µM, first compound 0.0316 µM
[14] = second compound 0.316 µM, first compound 0.1 µM
[15] = second compound 0.316 µM, first compound 0.316 µM
[16] = second compound 0.316 µM, first compound 1 µM
[17] = second compound 0.316 µM, first compound 3.16 µM
[18] = second compound 0.316 µM, first compound 10 µM
[19] = second compound 1 µM, first compound 0.0316 µM
[20] = second compound 1 µM, first compound 0.1 µM
[21] = second compound 1 µM, first compound 0.316 µM
[22] = second compound 1 µM, first compound 1 µM
[23] = second compound 1 µM, first compound 3.16 µM
[24] = second compound 1 µM, first compound 10 µM
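Further: spheroids exposed to compounds for seven days before read-out.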

For `CNC(=O)c1ccc(N2C(=S)N(c3ccc(C#N)c(C(F)(F)F)c3)C(=O)C2(C)C)cc1F` + CC(Nc1ncnc2nc[nH]c12)c1cc2cccc(Cl)c2c(=O)n1-c1ccccc1, the IC50 (second compound 0.0316 µM) was > 10 µM, the IC50 (second compound 0.1 µM) was > 10 µM and the IC50 (second compound 0.316 µM) was > 10 µM. For the same molecule, the IC50 (second compound 1 µM) was > 10 µM, the IC50 (second compound 3.16 µM) was > 10 µM and the IC50 (second compound 10 µM) was > 10 µM. The viability, T/C [1] was 97.9%, the viability, T/C [2] was 108% and the viability, T/C [3] was 100%. It also gave a viability, T/C [4] of 91.9%, a viability, T/C [5] of 103% and a viability, T/C [6] of 85.7%. It also gave a viability, T/C [7] of 94.2%, a viability, T/C [8] of 104% and a viability, T/C [9] of 108%. The viability, T/C [10] was 93%, the viability, T/C [11] was 83.2% and the viability, T/C [12] was 74.2%. It also gave a viability, T/C [13] of 111%, a viability, T/C [14] of 88.6% and a viability, T/C [15] of 92.4%. For the same molecule, the viability, T/C [16] was 96.3%, the viability, T/C [17] was 95.2% and the viability, T/C [18] was 70.9%. The viability, T/C [19] was 94.3%, the viability, T/C [20] was 95.4% and the viability, T/C [21] was 83.8%. The viability, T/C [22] was 88.9%, the viability, T/C [23] was 84.7% and the viability, T/C [24] was 78%. For the same molecule, the viability, T/C (second compound 3.16 µM, first compound 0.0316 µM) was 76.6%, the viability, T/C (second compound 3.16 µM, first compound 0.1 µM) was 83.1% and the viability, T/C (second compound 3.16 µM, first compound 0.316 µM) was 71.8%. It also gave a viability, T/C (second compound 3.16 µM, first compound 1 µM) of 82.9%, a viability, T/C (second compound 3.16 µM, first compound 3.16 µM) of 82.1% and a viability, T/C (second compound 3.16 µM, first compound 10 µM) of 61.2%. For the same molecule, the viability, T/C (second compound 10 µM, first compound 0.0316 µM) was 62.6%, the viability, T/C (second compound 10 µM, first compound 0.1 µM) was 67.6% and the viability, T/C (second compound 10 µM, first compound 0.316 µM) was 66.6%. For the same molecule, the viability, T/C (second compound 10 µM, first compound 1 µM) was 58.7%, the viability, T/C (second compound 10 µM, first compound 3.16 µM) was 58.5% and the viability, T/C (second compound 10 µM, first compound 10 µM) was 55%.
With `CNC(=O)c1ccc(N2C(=S)N(c3ccc(C#N)c(C(F)(F)F)c3)C(=O)C2(C)C)cc1F` + CC(Nc1ccc2c(c1)OCCn1cc(N3C(=O)OCC3C(F)F)nc1-2)C(N)=O the IC50 (second compound 0.00316 µM) was > 10 µM, the IC50 (second compound 0.01 µM) was > 10 µM and the IC50 (second compound 0.0316 µM) was > 10 µM. For the same molecule, the IC50 (second compound 0.1 µM) was 4.15 µM, the IC50 (second compound 0.316 µM) was < 0.0316 µM and the IC50 (second compound 1 µM) was < 0.0316 µM. For the same molecule, the viability, T/C (second compound 0.00316 µM, first compound 0.0316 µM) was 89.1%, the viability, T/C (second compound 0.00316 µM, first compound 0.1 µM) was 103% and the viability, T/C (second compound 0.00316 µM, first compound 0.316 µM) was 90.5%. For the same molecule, the viability, T/C (second compound 0.00316 µM, first compound 1 µM) was 87.3%, the viability, T/C (second compound 0.00316 µM, first compound 3.16 µM) was 88.1% and the viability, T/C (second compound 0.00316 µM, first compound 10 µM) was 77.5%. For the same molecule, the viability, T/C (second compound 0.01 µM, first compound 0.0316 µM) was 93.4%, the viability, T/C (second compound 0.01 µM, first compound 0.1 µM) was 92.7% and the viability, T/C (second compound 0.01 µM, first compound 0.316 µM) was 90.3%. It also gave a viability, T/C (second compound 0.01 µM, first compound 1 µM) of 84.4%, a viability, T/C (second compound 0.01 µM, first compound 3.16 µM) of 90.5% and a viability, T/C (second compound 0.01 µM, first compound 10 µM) of 88.6%. For the same molecule, the viability, T/C [1] was 75.9%, the viability, T/C [2] was 78.6% and the viability, T/C [3] was 87%. It also gave a viability, T/C [4] of 71%, a viability, T/C [5] of 74.5% and a viability, T/C [6] of 71.4%. The viability, T/C [7] was 60.7%, the viability, T/C [8] was 55.5% and the viability, T/C [9] was 57.2%. For the same molecule, the viability, T/C [10] was 53.4%, the viability, T/C [11] was 50.5% and the viability, T/C [12] was 47.8%. For the same molecule, the viability, T/C [13] was 32.5%, the viability, T/C [14] was 35.6% and the viability, T/C [15] was 35.1%. For the same molecule, the viability, T/C [16] was 36.4%, the viability, T/C [17] was 33.3% and the viability, T/C [18] was 31.5%. It also gave a viability, T/C [19] of 22.4%, a viability, T/C [20] of 22.8% and a viability, T/C [21] of 21.5%. The viability, T/C [22] was 21.8%, the viability, T/C [23] was 24.1% and the viability, T/C [24] was 23%.
